Assay results from PubChem BioAssay (NCI).
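Assay format: 96-well plates, 48-hour exposure. GI50 marks 50% less growth. TGI: total growth inhibition.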

Test system: MDA-MB-468 breast
Assay: NCI anticancer screen, dose series, 48 h

| Structure (SMILES) | GI50 [nM] | TGI [µM] |
| --- | --- | --- |
| CCCCCCNc1nc(N2CCOCC2)c2[nH]c(NCCCCCC)nc2n1 | 1380 | 2.7 |
| Cc1cc(C)n(C(=O)c2nn(-c3ccc(Cl)cc3)cc2O)n1 | 8900 | > 100 |
| CN(C)CCCOc1c2ccccc2nc2c1oc1ccc(Cl)cc12 | 2950 | 8.8 |
| CN1CCN(c2ccc(NC3=C(Cl)C(=O)c4ncccc4C3=O)cc2C#N)CC1 | 414 | 1.9 |
| [C-]#[N+][C@]12C(=O)[C@H](CCC1(C)C)C(C)(C)[C@H]1C(=O)N(C)c3cccc2c31 | 4020 | > 100 |
| Cc1cc(C)cc(Nc2ccc([N+](=O)[O-])c(NCCN3CCOCC3)n2)c1 | 0.419 | – |
| O=C(CNc1ncco1)Nc1ccc(S(=O)(=O)c2ccc(NC(=O)CNc3ncco3)cc2)cc1 | 1440 | 3.16 |
| Cc1nc2cc(Nc3nc(Nc4ccc(F)cc4)nc(N4CCN(C)CC4)n3)ccc2n1Cc1ccccc1 | 1430 | 3.44 |
| O=C1C(=O)c2ccccc2C(O)=C1CC=C(Cl)Cl | 15800 | 59 |
| COc1ccc(CC(NC(=O)[C@H](C)NC(=O)CN2CCOCC2)C(=O)N[C@@H](Cc2ccccc2)C(=O)[C@@]2(C)CO2)cc1 (some centres not stated) | 174 | 0.595 |
| CC(CN1CCN(CC(C)Nc2ccnc3cc(Cl)ccc23)CC1)Nc1ccnc2cc(Cl)ccc12 (configuration not stated) | 2970 | 9.55 |
| Nc1ccc2ccc(NS(=O)(=O)N3CCCCC3)cc2c1 | 194 | > 100 |
| CCO/C=N/C1=C(C#N)C(c2ccc(F)cc2)c2sc3c(C)cccc3c2O1 (configuration not stated) | 504 | 17.1 |
| Cc1ccc2c(c1)O/C(=C\c1ccc([N+](=O)[O-])o1)C2=O | 1560 | 3.5 |
| COc1ccc2c(c1)cn1c3ccc(O)cc3[nH]c(=O)c21 | 236 | 1.09 |
| Cc1ccc(C2CC(c3ccc(Nc4nc(NCCO)nc(Nc5ccc(Cl)cc5)n4)cc3)=Nc3c(N)nc(N)nc3N2)cc1 (configuration not stated) | 1650 | 3.17 |
| C/C1=C/C(=O)O[C@@H]2C[C@@H](CC[C@H](C)/C=C\C=C\CC1)O[C@@](OCCc1ccccc1)([C@@H]1CSC(=O)N1)C2 | 29.2 | 0.135 |
| O=C(Nc1ccccc1O)c1ccc(CNC(=O)c2sccc2Nc2ccnc(C(F)(F)F)c2)cc1 | 2010 | 5.9 |
| CNC(=O)OC1C(O[C@H]2C[C@H]3[C@@H]4CC=C5C[C@@H](O)CC[C@]5(C)[C@H]4CC[C@]3(C)[C@H]2[C@H](C)C(=O)CCC(C)C)OCC(O)C1OC1OCC(O)C(O)C1OC(=O)c1ccc(OC)cc1 (some centres not stated) | 27 | 2.96 |
| NC(=S)N/N=C\c1nccc2c(N)cccc12 | 226 | 0.717 |

| Structure (SMILES) | GI50 [nM] | TGI [µM] |
| --- | --- | --- |
| CCOC(=O)N[C@H]1CCc2c(Br)c(OC)c(OC)c(OC)c2-c2ccc(SC)c(=O)cc21 | < 10 | 16.8 |
| CC(C)(C)OC(=O)CN1CCc2c(sc3ncnc(N/N=C/c4cccc5ccccc45)c23)C1 | 3900 | 16.3 |
| C1=C(c2ccccc2)C(c2ccc(OCCN3CCCCC3)cc2)Oc2ccccc21 (configuration not stated) | 1540 | 3 |
| C#Cc1cccc(Oc2ccc(NC(=O)CCl)cc2)c1 | 77900 | > 82.5 |
| Cc1cc2c(-c3ccc(NC(=O)[C@H](N)CC(C)(C)C)cc3C)ccnc2[nH]1 | 2730 | 10.6 |
| CCCCCCCCCCCCCC(=O)C(C)N (configuration not stated) | 3310 | 9.51 |
| COc1cc(-c2cc(/C=C3\C(=O)Nc4ccccc43)[nH]n2)cc(OC)c1OC | 2880 | 13.4 |
| C[C@@H](Oc1ccc2[nH]nc(/C=C/c3cnn(CCO)c3)c2c1)c1c(Cl)cncc1Cl | 1370 | 3.11 |
| Oc1c(I)cc(-c2nc3ccccc3s2)cc1CN(Cc1ccccn1)Cc1ccccn1 | 531 | 5.25 |
| CCN(CC)CCOc1ccc2c(c1)C(=O)c1cc(OCCN(CC)CC)ccc1-2 | 2640 | 8.53 |
| O=S(=O)(NCCNc1cc(-c2cn(-c3ccccc3)nc2-c2cccc(O)c2)ccn1)c1ccc(Cl)cc1 | 2780 | 7.66 |
| Cc1cccc2c1O/C(=C\c1ccc([N+](=O)[O-])o1)C2=O | 1290 | 2.99 |
| CS(=O)(=O)CCn1c(=O)c(Oc2ccc(F)cc2F)cc2cnc(NC3CCOCC3)nc21 | > 25000 | > 25 |
| COc1ccc(/C=C/C(=O)c2cc3c(N)c(C(=O)Nc4ccccc4C)sc3nc2C)cc1 | 167 | > 50 |
| COc1cc(NCc2ccccc2O)c2ncccc2c1 | 15400 | 50.4 |
| COc1ccc(-c2nnc(N3CCN(C(=O)CN4CCN(c5ccc(Cl)cc5)CC4)CC3)nc2-c2ccc(OC)cc2)cc1 | 17900 | 48.3 |
| O=C(O)c1cc(Cc2ccc(O)c(C(=O)O)c2)ccc1O (tested in a mixture with another compound) | 2570 | 14.4 |
| COc1cc(C2=NN(c3ccc(S(N)(=O)=O)cc3)C(c3ccc(Cl)cc3)C2)cc(OC)c1OC (configuration not stated) | 2880 | > 100 |
| C(=C\c1nccc2c1[nH]c1ccccc12)/c1ccccc1 | 2040 | 7.91 |
